The source of these data is US10023532B2, “Alkyl phenyl sulfide derivative and pest control agent” (KUMIAI CHEMICAL INDUSTRY CO., LTD., priority 2012, dated 2018).

Assay [1] relates to Nilaparvata lugens Stál (brown rice planthopper). Nature of the assay: Insecticidal activity test for Nilaparvata lugens Stál (brown rice planthopper). In kind it is in vivo. The note with it: active ingredient concentration 100 ppm, sprouting unhulled rice immersed, 10 3-instar larvae, 25° C., after 6 days, no replication; for mortality at 100 ppm: Nilaparvata lugens, 144 h. The procedure:
A wettable powder prepared based on Formulation Example 2 was diluted with water into an active ingredient concentration of 100 ppm. In the solution was immersed sprouting unhulled rice. They were placed in a 60-ml plastic cup. Thereinto were released 10 3-instar larvae of brown rice planthopper. The cup was covered with a lid and placed in a thermostat of 25° C. After 6 days, the number of living insects was counted and the mortality of insect was determined from the calculation formula of the following Mathematical Expression 2. This test was conducted with no replication. Mortality (%)=100−[(number of living insects after 6 days)/(number of tested insects)]×100 [Mathematical Expression 2]
As in the case of Test Example 1, tests similar to the above were conducted using, as comparative compounds, compound Nos. 22 and 23 described in JP-A-1975-29744, compound Nos. 4, 5, 6 described in JP-A-1976-19121 and compound Nos. 18, 19 and 36 described in JP-A-1988-41451.

For assay [2], the system named is Tetranychus urticae Koch (two spotted spider mite). Nature of the assay: Control effect test for Tetranychus urticae Koch (two spotted spider mite). In kind it is in vivo. Particulars: active ingredient concentration 4 ppm, soybean seedlings with 35 female adults immersed, 25° C., after 13 days, no replication; for pest or weed control at 4 ppm: Tetranychus urticae, 312 h. The procedure:
A wettable powder prepared based on Formulation Example 2 was diluted with water into an active ingredient concentration of 4 ppm. In the solution were immersed soybean seedlings which had been inoculated with 35 female adults of two spotted spider mite. The soybean seedlings were dried in the air and placed in a thermostat of 25° C. After 13 days, the number of living female adults was examined and the control value of the active ingredient was determined using the calculation formula of the following Mathematical Expression 1. This test was conducted with no replication. Control value=100−[(number of living female adults after 13 days, in treated seedlings)/(number of living female adults after 13 days, in non-treated seedlings)]×100 [Mathematical Expression 1]
Tests similar to the above were conducted using, as comparative compounds, compound Nos. 22 and 23 described in JP-A-1975-29744, compound Nos. 3, 4, 5, 6 described in JP-A-1976-19121 and compound Nos. 18, 19 and 36 described in JP-A-1988-41451. The structures of these comparative compounds are as follows.

Molecule `[O-][S+](CC(F)(F)F)c1cc(OCCCCCSC(F)(F)F)c(F)cc1Cl` (racemic) [A-0434, 5-trifluoromethylthiopentyl-[4-chloro-2-fluoro-5-(2,2,2-trifluoroethylsulfinyl)phenyl] ether] showed a mortality at 100 ppm in assay [1] not below 90%. In addition, the pest or weed control at 4 ppm in assay [2] was not below 90%.

Turning to `Cc1cc(F)c(OCCCCC(C)(C)C)cc1SCC(F)(F)F` [A-0085, 5,5-dimethylhexyl-[2-fluoro-4-methyl-5-(2,2,2-trifluoroethylthio)phenyl] ether], the mortality at 100 ppm in assay [1] is not below 90%. The same molecule returned a pest or weed control at 4 ppm in assay [2] not below 90%.

Regarding `Cc1cc(F)c(OCCCCC(C)(C)C)cc1[S+]([O-])CC(F)(F)F` (stereo not shown) [A-0086, 5,5-dimethylhexyl-[2-fluoro-4-methyl-5-(2,2,2-trifluoroethylsulfinyl)phenyl] ether], the mortality at 100 ppm in assay [1] is not below 90%. Further, the pest or weed control at 4 ppm in assay [2] is not below 90%.

As for `Fc1cc(Cl)c(SCC(F)(F)F)cc1OCCCCCSC(F)(F)F` [A-0433, 5-trifluoromethylthiopentyl-[4-chloro-2-fluoro-5-(2,2,2-trifluoroethylthio)phenyl] ether], the mortality at 100 ppm in assay [1] is not below 90%.

In assay [1], `Cc1ccc(OCCCCCSC(F)(F)F)cc1SCC(F)(F)F` [A-0438, 5-trifluoromethylthiopentyl-[4-methyl-3-(2,2,2-trifluoroethylthio)phenyl] ether] had a mortality at 100 ppm not below 90%. Also, the pest or weed control at 4 ppm in assay [2] is not below 90%.

Molecule `Cc1ccc(OCCCCCSC(F)(F)F)cc1[S+]([O-])CC(F)(F)F` (stereo not shown) [A-0439, 5-trifluoromethylthiopentyl-[4-methyl-3-(2,2,2-trifluoroethylsulfinyl)phenyl] ether] displayed a mortality at 100 ppm in assay [1] not below 90%. Besides, the pest or weed control at 4 ppm in assay [2] is not below 90%.

Take `FC(F)(F)CSc1cc(OCCCCCCSC(F)(F)F)c(Cl)cc1Cl` [A-0478, 6-trifluoromethylthiohexyl-[2,4-dichloro-5-(2,2,2-trifluoroethylthio)phenyl] ether]: in assay [2], the pest or weed control at 4 ppm is not below 90%.

Consider `[O-][S+](CC(F)(F)F)c1cc(OCCCCCCSC(F)(F)F)c(Cl)cc1Cl` (stereo not shown) [A-0479, 6-trifluoromethylthiohexyl-[2,4-dichloro-5-(2,2,2-trifluoroethylsulfinyl)phenyl] ether], for which the pest or weed control at 4 ppm in assay [2] was not below 90%.

The molecule `Cc1cc(C)c([S+]([O-])CC(F)(F)F)cc1OCCCCCCSC(F)(F)F` (stereo not shown) [A-0481, 6-trifluoromethylthiohexyl-[2,4-dimethyl-5-(2,2,2-trifluoroethylsulfinyl)phenyl]ether] gave a pest or weed control at 4 ppm in assay [2] not below 90%.

Turning to `[O-][S+](CC(F)(F)F)c1cc(OCCc2ccc(C(F)(F)F)cc2)c(Cl)cc1Cl` (stereo not shown) [A-0767, 2-(4-trifluoromethylphenyl)ethyl-[2,4-dichloro-5-(2,2,2-trifluoroethylsulfinyl)phenyl] ether], in assay [2], the pest or weed control at 4 ppm is not below 90%.

In turn, `Cc1cc(C)c([S+]([O-])CC(F)(F)F)cc1OCCc1ccc(OC(F)(F)F)cc1` (stereo not shown) [A-0783, 2-(4′-trifluoromethoxyphenyl)ethyl-[2,4-dimethyl-5-(2,2,2-trifluoroethylsulfinyl)phenyl] ether] returned a pest or weed control at 4 ppm in assay [2] not below 90%.

On to `Cc1cc(F)c(O)cc1SCC(F)(F)F` [C-0001, 2-fluoro-4-methyl-5-(2,2,2-trifluoroethylthio)phenol], for which the mortality at 100 ppm in assay [1] is not below 90%.

With `C#CCOc1ccc(C)c(SCCC)c1` [compound 3], in assay [2], the control value entry was “no activity”.

As to `C#CCOc1ccc(C)c([S+]([O-])CCC)c1` (stereo not shown) [compound 4], the mortality result in assay [1] is “no activity”. Besides, the control value result in assay [2] is “no activity”.

Consider `CCCSc1cc(OCC=CCl)ccc1C` [compound 5], for which the mortality entry in assay [1] is on record as “no activity”. Besides, in assay [2], the control value result is recorded as “no activity”.

For the molecule `CCC[S+]([O-])c1cc(OCC=CCl)ccc1C` (stereo not shown) [compound 6], the mortality entry in assay [1] is “no activity”. Also, in assay [2], the control value result is recorded as “no activity”.

As for `CCCSc1cc(OCc2ccc(Cl)cc2)ccc1C` [compound 18], the mortality result in assay [1] is “no activity”. In assay [2], the control value entry is recorded as “no activity”.

Consider `CCC[S+]([O-])c1cc(OCc2ccc(Cl)cc2)ccc1C` (stereo not shown) [compound 19], for which the mortality entry in assay [1] is “no activity”. Moreover, the control value result in assay [2] was “no activity”.

`CCCCCCOc1ccc(Cl)c(SCCC)c1` [compound 22]: the mortality result in assay [1] is listed as “no activity”. Besides, the control value entry in assay [2] was “no activity”.

Consider `CCCCCCOc1ccc(Cl)c([S+]([O-])CCC)c1` (stereo not shown) [compound 23], for which, in assay [1], the mortality entry is “no activity”. The control value result in assay [2] is given as “no activity”.

Take `CCCSc1cc(OCCCSCc2ccccc2)ccc1C` [compound 36]: the mortality entry in assay [1] is listed as “no activity”. For the same molecule, in assay [2], the control value result is given as “no activity”.

In general, mortality refers to the percentage killed. A low value points to more survivors. As a reminder, the pest or weed control is the degree to which the test organism was suppressed or injured, in per cent.
